Measurements published in patent US20240059725A1, “COUMARIN COMPOUNDS AND A PROCESS FOR PREPARATION THEREOF” (priority 2021, published 2024).
Converted amounts (≈) assume the structure as drawn.

Legend:
RAW 264.7 cells = assay: Flow cytometry analysis of Reactive Oxygen Species production (DCFDA) in LPS induced RAW cell line; format: cell-based; conditions: RAW cell line treated along with LPS, 48 hours
Protocol: RAW cell line was cultured in a T 25 flask in DMEM. After the cells reached confluency evel up to 90 percent, they were seeded in 6 well plates at 1 lakh cells/well. After adhesion of cells drugs were treated along with LPS and kept for 48 hours.
Flow cytometry analysis of Reactive Oxygen Species production on RAW cell line:
After 48 hr of treatment cells were harvested and stained with DCFDA and run-on flow cytometer.

[1] = system: Human breast adenocarcinoma (MDA-MB-468) cell line; assay: Anticancer activity, MTT assay against MDA-MB-468; format: cell-based; conditions: for IC50: Homo sapiens, MDA-MB-468, interpolated from graph (FIG. 6)
Protocol: (§1) The anticancer activity of the compound (3) denoted as “P” and compound (4) denoted as “DP” was assessed invitro by MTT 3-(4,5-dimethylthiazol-2-yl)-2,5-diphenyltetrazolium bromide assay against Human colon carcinoma (HCT-116) cell lines and Human breast adenocarcinoma (MDA-MB-468) respectively.
(§2) RPMI-1640, fetal bovine serum (FBS), penicillin, streptomycin was procured from HiMedia (Mumbai, India). Doxorubicin, MTT 3-(4,5-dimethylthiazol-2-yl)-2,5-diphenyltetrazolium bromide were procured from Sigma Aldrich (USA). The chemicals used were of analytical or HPLC grade. Human breast adenocarcinoma (MDA-MB-468), Human colon carcinoma (HCT-116) was procured from NCCS, Pune, India. The cell line was grown in the RPMI-1640 with 2 mM L-glutamine, supplemented with 10% FBS, penicillin (100 IU/mL) and streptomycin (100 μg/mL) at 37° C. in a 95% humidified CO2 incubator with 5% CO2 atmosphere. The cell lines were passaged twice weekly for maintaining sub-confluent state.
(§3) MTT assay was used as cell viability assay. The principle of the assay lies in the fact that the MTT is reduced to formazan crystals by mitochondrial dehydrogenase of the viable cells. The anticancer activity of compounds (3) and (4) was assessed invitro by MTT 3-(4,5-dimethylthiazol-2-yl)-2,5-diphenyltetrazolium bromide assay based on the methods by Mosmann, T and Bose et.al. (Mosmann, T. Journal of Immunological methods. 1983, 65, 55-63; and Bose, D. S.; Idrees, M.; Jakka, N. M.; Rao, J. V. J. Comb. Chem. 2010, 12, 100-110). Doxorubicin (DXN) a known anticancer drug was used as a reference compound in the assay. The treated and untreated cells were washed with PBS (Phosphate buffer saline) and MTT (100 μg/ml) was added and incubated at 37° C. for 5 hr. The MTT was then removed, and the formazan crystals were dissolved by adding DMSO. The absorbance at 540 nm represents the viable cells. The absorbance was recorded using Multiskan spectrum, Thermo scientific. […] The absorbance from the untreated cells was defined as 100% viable cells. The % viable cells were plotted (Y-axis) against concentration (X-axis). The IC50 values were interpolated from the graphs of FIGS. 5 and 6.

HEK cell line = assay: ROS production in HEK cell line; format: cell-based, Human
[2] = Cytotoxicity MTT assay in HEK 293 cell line; format: cell-based; conditions: human, HEK 293 cells, 48 hr of treatment, read-out: IC-50 value (cytotoxicity)
Protocol: Human embryonic kidney HEK 293 cell line were cultured in complete DMEM (Dulbecco's modified eagle medium) high glucose medium with 10% foetal bovine serum and 1% Penicillin Streptomycin and grown at 37° C.in a humidified incubator with 5% CO2. The cells were grown in T-25 flasks till about 80% confluency and 5000cells/well were seeded in a 96 well cell culture plate.
After 24 hr the cells were treated with all the concentrations of the drug (compound (4)) in triplicates and incubated for 48 hr.
After 48 hr of incubation MTT was added at a concentration of 0.5 mg/ml and incubated at 37° C. for 4 hr. After 4 hr the media was discarded from each well and DMSO was added. After 30 mins of incubation at 37° C.the colorimetric data was taken at 570 nm.

[3] = system: Human colon carcinoma (HCT-116) cell line; assay: Anticancer activity, MTT assay against HCT-116; format: cell-based; conditions: for IC50: Homo sapiens, HCT-116, interpolated from graph (FIG. 5)
Protocol: as §1, §2, §3

| Structure (SMILES) | ROS production (RAW 264.7 cells) | IC50 [1] [mg/L] | Percentage of cell death ([1]; MDA-MB-468, 1.0 μg/mL) [%] | Percentage of cell death ([1]; MDA-MB-468, 2.0 μg/mL) [%] | Percentage of cell death ([1]; MDA-MB-468, 5.0 μg/mL) [%] | Percentage of cell death ([1]; MDA-MB-468, 10.0 μg/mL) [%] | Percentage of cell death ([1]; MDA-MB-468, 25.0 μg/mL) [%] | ROS production (HEK cell line) | IC50 at 48 h [2] [mg/L] | Percentage of cell death ([3]; HCT-116, 1.0 μg/mL) [%] | Percentage of cell death ([3]; HCT-116, 2.0 μg/mL) [%] | Percentage of cell death ([3]; HCT-116, 5.0 μg/mL) [%] | Percentage of cell death ([3]; HCT-116, 10.0 μg/mL) [%] | Percentage of cell death ([3]; HCT-116, 25.0 μg/mL) [%] | IC50 [3] [mg/L] |
| --- | --- | --- | --- | --- | --- | --- | --- | --- | --- | --- | --- | --- | --- | --- | --- |
| O=C(OCC1OC(O)C(O)C(O)C1O)c1cc2ccccc2oc1=O (stereo not drawn) [Compound (4)] | able to produce ROS in all concentrations | 3.2 (≈ 9.08 µM) | 25.71 ± 0.003 | 42.27 ± 0.026 | 66.49 ± 0.007 | 78.66 ± 0.018 | 86.10 ± 0.015 | no ROS production | > 1000 | – | – | – | – | – | – |
| COc1cccc2c1C(=O)c1c(O)c3c(c(O)c1C2=O)C[C@@](O)(C(=O)CO)C[C@@H]3O[C@H]1C[C@H](N)[C@H](O)[C@H](C)O1 [DXN, Doxorubicin, reference compound] | – | 5 (≈ 9.2 µM) | 16.12 ± 0.001 | 31.68 ± 0.012 | 52.34 ± 0.015 | 63.76 ± 0.0031 | 73.45 ± 0.060 | – | – | 16.12 ± 0.001 | 31.68 ± 0.012 | 52.34 ± 0.015 | 63.76 ± 0.0031 | 73.45 ± 0.060 | 5 (≈ 9.2 µM) |
| CC1(C)OC2OC(COC(=O)c3cc4ccccc4oc3=O)C3OC(C)(C)OC3C2O1 (stereo not drawn) [Compound (3)] | – | – | – | – | – | – | – | – | – | 25.81 ± 0.015 | 44.01 ± 0.028 | 61.45 ± 0.006 | 75.01 ± 0.076 | 88.64 ± 0.018 | 3.8 (≈ 8.79 µM) |
